Results reported in patent publication US8815882B2, “Pyrazole aminopyrimidine derivatives as LRRK2 modulators” (Genentech, Inc., priority 2010, dated 2014).
Like-named read-outs stand apart in the source and are kept apart here.

Molecular target: T1, LRRK2 (Homo sapiens, UniProt Q5S007, G2019S)
T1 construct: purchased Invitrogen PV4882 (lot 567054A)
Test: In Vitro LRRK2 Assay (LabChip 3000, fluorescently-labeled peptide substrate, ATP)
Assay type: biochemical
Description: This assay was used to determine a compound's potency in inhibiting activity of LRRK2 by determining, Kiapp, IC50, or percent inhibition values. In a polypropylene plate, LRRK2, fluorescently-labeled peptide substrate, ATP and test compound were incubated together. Using a LabChip 3000 (Caliper Life Sciences), after the reaction the substrate was separated by capillary electrophoresis into two populations: phosphorylated and unphosphorylated. The relative amounts of each were quantitated by fluorescence intensity. LRRK2 Ki was determined according to the equation: Y=V0*(1−(x+Ki*(1+S/Km)+Et)/(2*Et)−(((x+Ki*(1+S/Km)+Et)^2−(4*Et*x))^0.5)/(2*Et))). Ki values in Table 4 and elsewhere herein are shown in μM.
Assay conditions and materials used were as follows:
Compound Plate Preparation:
For serial dilutions, 34.6 μl DMSO was added to columns 3-24.
Total and Blank Preparation:
In Complete Reaction Buffer, substrate was diluted to 4 μM. Equal volumes of Complete Reaction Buffer and 4 μM substrate were combined to obtain the blank. Equal volumes of Complete Reaction Buffer and 4 μM substrate were combined and to the combined solution was added 2× final LRRK2 concentration.
To a 50 μl polypropylene plate, 5 μl/well buffer/substrate was added by hand to Blank wells. A Biomek FX was used to start the kinase reaction (“PLK SAR 23 ATP”). The following were added to the appropriate wells:
5 μl/well compound/ATP in Assay Plate;
5 μl/well kinase/substrate in Assay Plate;
The plate was incubated for 2 hours in the dark. Biomek FX was used to stop the kinase reaction (“PLK Stop”), and 10 μl/well Stop solution was added to the Assay Plate. Results were read on the LabChip 3000.
The LabChip 3000 was run using the job “LRRK2 IC50” with the following job settings: […]

[1] = Table 9, LRRK2 Ki (micromolar), read-out: LRRK2 Ki (KI)
[2] = read-out: LRRK2 Ki (KI), Table 8
[3] = Table 10, LRRK2 Ki (micromolar), read-out: LRRK2 Ki (KI)

T1 sequence (Q5S007 whole entry G2019S): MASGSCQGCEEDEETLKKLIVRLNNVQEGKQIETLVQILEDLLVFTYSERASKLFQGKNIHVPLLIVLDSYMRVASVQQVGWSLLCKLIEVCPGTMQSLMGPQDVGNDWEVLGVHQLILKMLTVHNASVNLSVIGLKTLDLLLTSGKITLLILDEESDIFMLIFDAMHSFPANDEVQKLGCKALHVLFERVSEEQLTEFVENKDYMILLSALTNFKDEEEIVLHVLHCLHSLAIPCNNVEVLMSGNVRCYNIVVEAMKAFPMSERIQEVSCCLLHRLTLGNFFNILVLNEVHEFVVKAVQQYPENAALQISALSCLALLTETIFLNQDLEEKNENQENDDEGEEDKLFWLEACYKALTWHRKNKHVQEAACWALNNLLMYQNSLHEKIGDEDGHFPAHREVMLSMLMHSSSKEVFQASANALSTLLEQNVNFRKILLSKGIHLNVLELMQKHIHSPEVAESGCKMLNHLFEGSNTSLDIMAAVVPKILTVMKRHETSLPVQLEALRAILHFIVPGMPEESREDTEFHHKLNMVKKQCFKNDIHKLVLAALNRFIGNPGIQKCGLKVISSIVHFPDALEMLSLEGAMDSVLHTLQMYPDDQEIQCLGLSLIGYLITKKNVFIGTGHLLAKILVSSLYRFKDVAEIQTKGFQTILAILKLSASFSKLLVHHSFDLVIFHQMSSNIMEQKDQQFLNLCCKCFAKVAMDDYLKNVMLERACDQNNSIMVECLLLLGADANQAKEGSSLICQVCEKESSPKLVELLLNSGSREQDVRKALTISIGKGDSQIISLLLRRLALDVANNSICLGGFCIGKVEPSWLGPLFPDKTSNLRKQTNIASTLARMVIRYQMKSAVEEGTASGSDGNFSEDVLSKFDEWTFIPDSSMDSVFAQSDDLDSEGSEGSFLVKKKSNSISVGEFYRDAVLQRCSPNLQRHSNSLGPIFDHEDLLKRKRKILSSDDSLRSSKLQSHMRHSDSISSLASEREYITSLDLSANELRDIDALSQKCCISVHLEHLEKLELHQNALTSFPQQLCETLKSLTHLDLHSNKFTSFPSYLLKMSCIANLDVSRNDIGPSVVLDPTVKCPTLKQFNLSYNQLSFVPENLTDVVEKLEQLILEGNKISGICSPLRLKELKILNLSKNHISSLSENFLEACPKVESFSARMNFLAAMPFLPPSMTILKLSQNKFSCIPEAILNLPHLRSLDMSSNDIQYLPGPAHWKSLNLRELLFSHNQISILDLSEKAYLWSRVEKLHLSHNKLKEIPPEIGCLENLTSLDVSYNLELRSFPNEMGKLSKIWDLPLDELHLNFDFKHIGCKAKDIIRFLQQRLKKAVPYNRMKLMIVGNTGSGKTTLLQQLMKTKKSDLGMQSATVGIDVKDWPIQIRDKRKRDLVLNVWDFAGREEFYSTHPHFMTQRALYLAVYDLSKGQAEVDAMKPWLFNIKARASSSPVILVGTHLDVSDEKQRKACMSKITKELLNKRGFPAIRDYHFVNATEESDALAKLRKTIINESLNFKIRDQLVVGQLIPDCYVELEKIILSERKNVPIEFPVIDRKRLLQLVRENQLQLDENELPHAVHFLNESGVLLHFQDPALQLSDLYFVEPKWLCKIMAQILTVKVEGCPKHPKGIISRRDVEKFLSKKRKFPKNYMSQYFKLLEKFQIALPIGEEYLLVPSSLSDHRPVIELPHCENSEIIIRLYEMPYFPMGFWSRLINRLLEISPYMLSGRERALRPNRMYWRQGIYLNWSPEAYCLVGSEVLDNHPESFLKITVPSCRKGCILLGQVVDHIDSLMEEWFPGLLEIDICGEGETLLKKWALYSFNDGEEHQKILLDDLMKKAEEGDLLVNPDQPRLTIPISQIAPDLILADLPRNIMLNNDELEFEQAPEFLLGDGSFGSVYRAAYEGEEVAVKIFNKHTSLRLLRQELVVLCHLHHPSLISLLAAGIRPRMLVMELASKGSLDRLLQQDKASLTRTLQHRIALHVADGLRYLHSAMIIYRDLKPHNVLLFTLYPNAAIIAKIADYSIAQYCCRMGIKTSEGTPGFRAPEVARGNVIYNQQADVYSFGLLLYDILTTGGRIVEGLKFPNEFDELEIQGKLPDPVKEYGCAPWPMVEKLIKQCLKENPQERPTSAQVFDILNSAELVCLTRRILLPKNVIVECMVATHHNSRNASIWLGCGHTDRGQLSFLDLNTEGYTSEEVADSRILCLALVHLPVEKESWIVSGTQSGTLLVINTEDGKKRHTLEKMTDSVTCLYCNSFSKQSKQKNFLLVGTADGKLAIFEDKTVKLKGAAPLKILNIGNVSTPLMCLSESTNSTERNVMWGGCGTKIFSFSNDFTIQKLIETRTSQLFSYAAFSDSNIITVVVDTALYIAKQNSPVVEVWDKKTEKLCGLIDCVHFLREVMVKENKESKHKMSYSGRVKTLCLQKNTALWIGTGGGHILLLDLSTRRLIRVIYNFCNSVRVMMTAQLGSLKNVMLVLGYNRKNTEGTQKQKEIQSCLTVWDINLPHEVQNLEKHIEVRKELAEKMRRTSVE

Row | Compound | Ki [2] [nM] | further results
1 | Cc1c(Nc2ncc(C#N)c(NCC(F)(F)F)n2)cnn1C [Example 376, 2-(1,5-dimethyl-1H-pyrazol-4-ylamino)-4-(2,2,2-trifluoroethylamino) pyrimidine-5-carbonitrile] |  | Ki [1]: 27.5 nM
2 | CNc1nc(Nc2cn(S(C)(=O)=O)nc2C)ncc1Cl [Example 101, 5-chloro-N4-methyl-N2-(3-methyl-1-(methylsulfonyl)-1H-pyrazol-4-yl)pyrimidine-2,4-diamine] | 8.8 | 
3 | CNc1nc(Nc2cn(Cc3ccncn3)nc2C)ncc1C(F)(F)F [Example 329, N4-Methyl-N2-(3-methyl-1-pyrimidin-4-ylmethyl-1H-pyrazol-4-yl)-5-trifluoromethyl-pyrimidine-2,4-diamine] | 5.2 | 
4 | CNc1nc(Nc2cn(C3CCN(CCOC)CC3)nc2C)ncc1C(F)(F)F [Example 238, N2-(1-(1-(2-methoxyethyl)piperidin-4-yl)-3-methyl-1H-pyrazol-4-yl)-N4-methyl-5-(trifluoromethyl) pyrimidine-2,4-diamine] | 16 | 
5 | CNc1nc(Nc2cnn([C@@H](C)C(=O)N3CCCC3)c2C)ncc1C(F)(F)F [Example 413, (S)-2-(5-methyl-4-(4-(methylamino)-5-(trifluoromethyl)pyrimidin-2-ylamino)-1H-pyrazol-1-yl)-1-(pyrrolidin-1-yl)propan-1-one] |  | Ki [3]: 40 nM
6 | CNc1nc(Nc2cnn([C@H](C)COC)c2C)ncc1C(F)(F)F [Example 274, N2-[1-((R)-2-Methoxy-1-methyl-ethyl)-5-methyl-1H-pyrazol-4-yl]-N4-methyl-5-trifluoromethyl-pyrimidine-2,4-diamine] | 18.5 | 
7 | CNc1nc(Nc2cn(C3CCN(C4COC4)CC3)nc2C)ncc1C(F)(F)F [Example 131, N4-methyl-N2-(3-methyl-1-(1-(oxetan-3-yl)piperidin-4-yl)-1H-pyrazol-4-yl)-5-(trifluoromethyl) pyrimidine-2,4-diamine] | 37.4 | 
8 | Cc1c(Nc2ncc(C(F)(F)F)c(NC3CC3)n2)cnn1S(C)(=O)=O [Example 301, N4-Cyclopropyl-N2-(1-methanesulfonyl-5-methyl-1H-pyrazol-4-yl)-5-trifluoromethyl-pyrimidine-2,4-diamine] | 2.1 | 
9 | CNc1nc(Nc2cnn(C3CCN(CC(F)(F)F)CC3)c2C)ncc1C#N [Example 356, 2-(5-methyl-1-(1-(2,2,2-trifluoroethyl)piperidin-4-yl)-1H-pyrazol-4-ylamino)-4-(methylamino) pyrimidine-5-carbonitrile] |  | Ki [1]: 22.5 nM
10 | CNc1nc(Nc2ccn(C(C)C)n2)ncc1C(F)(F)F [Example 57, N^2-(1-isopropyl-1H-pyrazol-3-yl)-N4-methyl-5-(trifluoromethyl) pyrimidine-2,4-diamine] |  | Ki (read-out: LRRK2 Ki (KI), Table 7): 2.5 nM
11 | CNc1nc(Nc2cnn(C3CCCOC3)c2C)ncc1C(F)(F)F (stereo not shown) [Example 231, N4-methyl-N2-(5-methyl-1-(tetrahydro-2H-pyran-3-yl)-1H-pyrazol-4-yl)-5-(trifluoromethyl) pyrimidine-2,4-diamine] | 1.8 | 
12 | CNc1nc(Nc2cn(C3CCC(OC)C3)nc2C)ncc1C(F)(F)F (stereo not shown) [Example 193, N2-(1-(3-methoxycyclo-pentyl)-3-methyl-1H-pyrazol-4-yl)-N4-methyl-5-(trifluoromethyl) pyrimidine-2,4-diamine] | 19 | 
13 | CCNc1nc(Nc2cn(C(C)(C)c3nnc[nH]3)nc2C)ncc1C(F)(F)F [Example 327, N4-Ethyl-N2-{3-methyl-1-[1-methyl-1-(4H-[1,2,4]triazol-3-yl)-ethyl]-1H-pyrazol-4-yl}-5-trifluoromethyl-pyrimidine-2,4-diamine] | 0.5 | 
14 | CNc1nc(Nc2cnn(CC3(C)COC3)c2Cl)ncc1C(F)(F)F [Example 180, N2-(5-chloro-1-((3-methyloxetan-3-yl)methyl)-1H-pyrazol-4-yl)-N4-methyl-5-(trifluoromethyl) pyrimidine-2,4-diamine] | 5.6 | 
15 | CNc1nc(Nc2cn(CC(C)(C)C#N)nc2Cl)ncc1C(F)(F)F [Example 326, 3-[3-Chloro-4-(4-methylamino-5-trifluoromethyl-pyrimidin-2-ylamino)-pyrazol-1-yl]-2,2-dimethyl-propionitrile] | 8.2 | 
16 | Cc1nn(C2COC2)cc1Nc1ncc(C#N)c(NCC(F)(F)F)n1 [Example 382, 2-(3-methyl-1-(oxetan-3-yl)-1H-pyrazol-4-ylamino)-4-(2,2,2-trifluoroethylamino) pyrimidine-5-carbonitrile] |  | Ki [1]: 66 nM

Row | Compound | Ki [2] [nM] | further results
17 | CNc1nc(Nc2cn(C3C[C@@H]4CC[C@@H](C3)O4)nc2C)ncc1C(F)(F)F (stereo partly drawn) [Example 126, N2-(1-((1S,5S)-8-oxabicyclo[3.2.1]octan-3-yl)-3-methyl-1H-pyrazol-4-yl)-N4-methyl-5-(trifluoromethyl) pyrimidine-2,4-diamine] | 113 | 
18 | CCNc1nc(Nc2cn(C3CCN(C)CC3)nc2C)ncc1C(F)(F)F [Example 208, N4-ethyl-N2-(3-methyl-1-(1-methylpiperidin-4-yl)-1H-pyrazol-4-yl)-5-(trifluoromethyl) pyrimidine-2,4-diamine] | 10.2 | 
19 | CNc1nc(Nc2cn(C3CCN(C4COC4)CC3F)nc2C)ncc1C(F)(F)F (stereo not shown) [Example 199, N2-(1-(3-fluoro-1-(oxetan-3-yl)piperidin-4-yl)-3-methyl-1H-pyrazol-4-yl)-N4-methyl-5-(trifluoromethyl) pyrimidine-2,4-diamine] | 2.2 | 
20 | CCNc1nc(Nc2cnn(C3CCN(C(=O)C(C)C)CC3)c2C)ncc1C(F)(F)F [Example 267, 1-{4-[4-(4-Ethylamino-5-trifluoromethyl-pyrimidin-2-ylamino)-5-methyl-pyrazol-1-yl]-piperidin-1-yl}-2-methyl-propan-1-one] | 0.8 | 
21 | CNc1nc(Nc2cnn(-c3ccc(Cl)cc3)c2C)ncc1Br [Example 122, 5-bromo-N2-(1-(4-chlorophenyl)-5-methyl-1H-pyrazol-4-yl)-N4-methylpyrimidine-2,4-diamine] | 14 | 
22 | CNc1nc(Nc2cnn([C@H](C)C(=O)N(C)C)c2C)ncc1C(F)(F)F [Example 412, (R)-N,N-dimethyl-2-(5-methyl-4-(4-(methylamino)-5-(trifluoromethyl)pyrimidin-2-ylamino)-1H-pyrazol-1-yl)propanamide] |  | Ki [3]: 28.4 nM
23 | CNc1nc(Nc2cnn(C3CCN(C(=O)C4CC4)CC3)c2C)ncc1C(F)(F)F [Example 135, cyclopropyl(4-(5-methyl-4-(4-(methylamino)-5-(trifluoromethyl)pyrimidin-2-ylamino)-1H-pyrazol-1-yl)piperidin-1-yl)methanone] | 1 | 
24 | CCNc1nc(Nc2cn(CC(C)(C)O)nc2C(C)(C)C)ncc1C(F)(F)F [Example 201, 1-(3-tert-butyl-4-(4-(ethylamino)-5-(trifluoromethyl)pyrimidin-2-ylamino)-1H-pyrazol-1-yl)-2-methylpropan-2-ol] | 420 | 
25 | CNc1nc(Nc2cnn(C(C)(C)C(=O)NCC(F)(F)F)c2C)ncc1C(F)(F)F [Example 443, 2-[5-Methyl-4-(4-methylamino-5-trifluoromethyl-pyrimidin-2-ylamino)-pyrazol-1-yl]-N-(2,2,2-trifluoro-ethyl)-isobutyramide] |  | Ki [3]: 66.6 nM
26 | CCC(C)S(=O)(=O)n1cc(Nc2ncc(C(F)(F)F)c(NC)n2)c(C)n1 (stereo not shown) [Example 220, N2-(1-(sec-butylsulfonyl)-3-methyl-1H-pyrazol-4-yl)-N4-methyl-5-(trifluoromethyl) pyrimidine-2,4-diamine] | 11.7 | 
27 | CNc1nc(Nc2cn(C(C)(C)C#N)nc2C2CC2)ncc1C(F)(F)F [Example 419, 2-(3-cyclopropyl-4-(4-(methylamino)-5-(trifluoromethyl)pyrimidin-2-ylamino)-1H-pyrazol-1-yl)-2-methylpropanenitrile] |  | Ki [3]: 1 nM
28 | CCNc1nc(Nc2cn(C3CCN(C(=O)C(C)C)CC3)nc2C)ncc1C(F)(F)F [Example 268, 1-{4-[4-(4-Ethylamino-5-trifluoromethyl-pyrimidin-2-ylamino)-3-methyl-pyrazol-1-yl]-piperidin-1-yl}-2-methyl-propan-1-one] | 7.7 | 
29 | CNC(=O)C(C)(C)n1ncc(Nc2ncc(C(F)(F)F)c(NC)n2)c1Cl [Example 237, 2-(5-chloro-4-(4-(methylamino)-5-(trifluoromethyl)pyrimidin-2-ylamino)-1H-pyrazol-1-yl)-N,2-dimethylpropan-amide] | 45 | 
30 | CCNc1nc(Nc2cn(C)nc2C2CCC2)ncc1C(F)(F)F [Example 281, N2-(3-Cyclobutyl-1-methyl-1H-pyrazol-4-yl)-N4-ethyl-5-trifluoromethyl-pyrimidine-2,4-diamine] | 1.3 | 
31 | CCNc1nc(Nc2cn(C(C)(C)c3ccn(C)n3)nc2C)ncc1C(F)(F)F [Example 342, N4-ethyl-N2-(3-methyl-1-(2-(1-methyl-1H-pyrazol-3-yl)propan-2-yl)-1H-pyrazol-4-yl)-5-(trifluoromethyl) pyrimidine-2,4-diamine] | 21.7 | 
